Test results: patent US8299083B2, “PDE5 inhibitor compositions and methods for treating cardiac indications” (The Johns Hopkins University, priority 2004, dated 2012)
Several values for one entry are separate records, joined by “and”; a condition that tells them apart may be missing. Identical values can stand only once. Like-named read-outs stand apart in the source and are kept apart here.

Experiments:
[1] = tested on: C57BL/6 mice, pressure overload by transverse aortic constriction; assay: TAC-induced cardiac hypertrophy, remodeling and fibrosis (heart weight/tibia length, histology); format: in vivo, mouse
Excerpt: TAC induced marked heart chamber and cellular hypertrophy (+100% by 3-weeks) that progressed to chamber dilation with reduced fractional shortening after 9 weeks. […] TAC induced a time-dependent increase in myocardial fibrosis and myocyte hypertrophy and both were suppressed by PDE5A inhibition (FIG. 1C, e.g. 67% reduction in fibrosis in 9-week hearts, p<0.0001).
Pressure overload was produced by transverse aortic constriction.
Hearts were fixed with 10% formalin overnight, then embedded in paraffin, sectioned at 5 μm thickness and stained with PAS methenamine. Cardiomyocyte diameter and interstitial collagen fraction were determined using computer-assisted image analysis (Adobe Photoshop 5.0, NIH Image J), with the observer blinded as to tissue source. At least 4-5 different hearts, with five separate fields of cells (total 50-70 cells for each heart) were quantified for cellular analysis.

AktTG and NTG mice = assay: Transgenic mice with cardiac-targeted Akt overexpression (AktTG) and NTG controls: pressure-volume analysis, echo, heart weight; format: in vivo, mouse; settings: for EDP / EDV / EF / ESP / ESV / Eesn / HR / PMXI / Tau / dP/dtmax/IP / dPdtmax / dPdtmin: sildenafil 100 mg/kg/day
Procedure: In vehicle-treated animals (age 4-5 months), AktTG hearts were larger and had reduced heart function (FIG. 10E and Table 3). […]
Transthoracic two-dimensional guided M-mode echocardiography was performed in non-anesthetized mice. Measurements were done using an echocardiography system, the SEQUOIA C256 (Siemens, Munich, Del.) with the 15 MHz linear-array transducer. Intact heart hemodynamic analysis was performed as described^90. These studies employed a four-electrode pressure-volume catheter (model SPR-839, Millar Instruments) placed through the left ventricular apex in the open chest anesthetized animal and positioned along the longitudinal axis to record chamber volume by impedance and pressure by micromanometry.
All hemodynamic data were recorded using custom developed software, digitizing signals at 2 KHz. End-diastolic and end-systolic volumes were the average of volumes measured during isovolumic contraction and relaxation, respectively. ESP was the pressure at maximal chamber elastance (P/V ratio)^1. EDP was the diastolic pressure at the lower right hand corner of the pressure-volume loop. Cardiac output was determined from a perivascular flow probe (Transonics, Ithica, N.Y.) placed around the thoracic aorta. Ea was equal to the ratio of end-systolic pressure divided by stroke volume. The volume catheter signal was calibrated for both gain and offset. Gain was determined by setting the catheter-derived cardiac output (equal to pressure-volume loop width times heart rate) to that obtained from the calibrated flow probe value. Offset was determined using the hypertonic saline method Ventricular power was equal to the instantaneous product of pressure times flow, and the peak power was divided by EDV to obtain the power index PMXI^79. […] The slope of this relation Ees was normalized by heart mass and expressed per gm heart mass. Msw was derived from the linear relation between stroke work and EDV from the same set of variably loaded cardiac cycles used to derive Eesn, and is another load-independent assessment of systolic contractile function^4. Tau was obtained from the model: P=Po+ae^−t/□ . . . fitting data during isovolumic relaxation. dP/dt was derived from a digital filter (5-point weighted slope). PFR/EDV was derived from the maximal first derivative of the volume signal during early diastole, divided by EDV.

[2] = Plasma sildenafil levels in healthy volunteers; format: in vivo; settings: human, po, 100 mg, 100 mg oral
Excerpt: Forty healthy volunteers were recruited from the general population in response to advertisements posted in the surrounding community. Subjects were screened by medical history, physical examination, and transthoracic echocardiogram. Individuals with heart disease, atherosclerosis, hypertension, diabetes mellitus, pulmonary hypertension, renal or hepatic disease, smoking, pregnancy, or under treatment with nitrates, adrenergic-blocking drugs, or medicines known to interfere with sildenafil pharmacokinetics were excluded. […] All subjects were instructed to fast for >6 hours prior to study. […] Intravenous dobutamine (5 μg/kg/min) was then administered for 5 minutes to achieve a stable response, and measurements repeated (D1). Dobutamine was discontinued, and 15 minutes provided to return to the baseline state. […] Data were again recorded for a second baseline (B2), and during a second dobutamine infusion (D2) using the identical protocol as for the first test. Plasma sildenafil and its metabolite […] measured in each subject by liquid chromatography and mass spectrometry (SFBC Analytical Labs, North Wales, Pa.).

PKG-1 = PKG-1 activity in isolated adult myocytes; format: cell-based, mouse; parameters: concentration or dose not given beside the values
Procedure: After 10 min, cells were lysed and PKG-1 activity determined.

[3] = tested on: isolated adult murine myocytes; assay: Isoproterenol-stimulated contraction of isolated adult cardiac myocytes; format: cell-based, mouse; settings: sildenafil 100 nM
Procedure: Louis, Mo.) for 6-7 min. Ventricles were gently chopped, filtered (150μ mesh), centrifuged (500 RPM×1 min), and rinsed in Tyrode's solution with increasing calcium (final 1.8 mM Ca^2+). Cells were incubated with 5 μM Indo-1 AM (Molecular Probes), rinsed, and studied at 27° C. by field stimulation in an inverted fluorescence microscope (Diaphot 200; Nikon, Inc). Sarcomere length (IonOptix, MA) and whole cell calcium transients were measured.

cGMP = cGMP FRET imaging in neonatal rat myocytes; format: cell-based
Procedure: Ventricular myocytes from 1-2 days old Sprague Dawley rats (CharlesRiver Lab, MA) were prepared and transfected with the vector carrying the cGMP sensor cygnet-2.1^77 in which EYFP was substituted with the less pH sensitive variant citrine^89, and imaged eighteen-twenty-four hours after transfection as described^90. Images (50-80 ms exposure) were acquired every 10 seconds using custom software and processed by Imagej (NIH, MD). FRET was the change in 480 nm/545 nm emission intensities (ΔR) upon 430 nm excitation^91 expressed as percent change over the basal intensity (R0). Cells were bathed in HEPES buffered Ringer's modified saline (1 mmol/L CaCl2), at room temperature (20-22° C.).

[4] = inhibitor combined with isoproterenol

## CCCc1nn(C)c2c(=O)[nH]c(-c3cc(S(=O)(=O)N4CCN(C)CC4)ccc3OCC)nc12 [sildenafil]
[1]; 1-week TAC, then 2 weeks treatment
  myocyte hypertrophy and interstitial fibrosis, established hypertrophy: both reversed towards baseline
[1]; 9-week TAC hearts
  reduction in fibrosis: 67%
[1]; TAC mice, concurrent oral treatment
  TAC-induced hypertrophy and chamber remodeling: inhibited
[1]; TAC mice, sildenafil 100 mg/kg/day
  reduction of cardiac hypertrophy (heart weight/tibia length): more than 50%
[1]; sham-operated mice
  effect on sham-operated controls: no impact
AktTG and NTG mice; AktTG, 6-week period
  progressive hypertrophy in AktTG mice (serial echo, heart weight/tibia length): did not blunt progressive hypertrophy
AktTG and NTG mice; AktTG
  EDP: 8.9 ± 1.1
  EDV: 57.6 ± 5.4
  EF: 31.8 ± 2.1
  ESP: 90.1 ± 0.9
  ESV: 39.6 ± 4.5
  Eesn: 21.5 ± 2.9
  HR: 569.5 ± 47.4
  PMXI: 17.8 ± 1.9
  Tau: 10.0 ± 0.6
  dP/dtmax/IP: 128.5 ± 2.9
  dPdtmax: 6993 ± 156
  dPdtmin: −6241 ± 289
AktTG and NTG mice; NTG
  EDP: 4.9 ± 1.2
  EDV: 44.5 ± 4.9
  EF: 56.7 ± 3.5
  ESP: 96.7 ± 4.7
  ESV: 19.4 ± 3.0
  Eesn: 39.9 ± 1.5
  HR: 511.6 ± 31.4
  PMXI: 25.9 ± 2.2
  Tau: 7.4 ± 0.6
  dP/dtmax/IP: 176.4 ± 14.8
  dPdtmax: 10133 ± 791
  dPdtmin: −9267 ± 417
[2]; subjects excluded from analysis, read-out: plasma concentration, mean of four subjects with very low levels
  concentration at 75 min: 3.6 nM
[2]; subjects excluded from analysis, read-out: plasma concentrations, each of four subjects with very low levels
  concentration at 75 min: < 6 nM
[2]; Free plasma sildenafil concentration, 75 minutes after dose
  concentration at 75 min: 44 ± 29 nM
PKG-1; basal conditions, inhibitor alone
  enhancement of PKG-1 activity: ~10%
PKG-1; [4]
  rise in PKG-1 activity: 50% and 70%
  rise in PKG-1 activity over ISO alone: 30%
[3]
  isoproterenol-enhanced contraction of isolated cardiac muscle cells: blunted
cGMP
  cGMP FRET signal: enhanced the FRET signal
cGMP; listed as SIL
  cGMP FRET signal: raised cellular cGMP
